Some results are limits rather than exact numbers.

The first experiment addresses T1, Capsid scaffolding protein (Human cytomegalovirus (strain AD169) (HHV-5) (Human herpesvirus 5), UniProt P16753).
T1 sequence (P16753 whole entry): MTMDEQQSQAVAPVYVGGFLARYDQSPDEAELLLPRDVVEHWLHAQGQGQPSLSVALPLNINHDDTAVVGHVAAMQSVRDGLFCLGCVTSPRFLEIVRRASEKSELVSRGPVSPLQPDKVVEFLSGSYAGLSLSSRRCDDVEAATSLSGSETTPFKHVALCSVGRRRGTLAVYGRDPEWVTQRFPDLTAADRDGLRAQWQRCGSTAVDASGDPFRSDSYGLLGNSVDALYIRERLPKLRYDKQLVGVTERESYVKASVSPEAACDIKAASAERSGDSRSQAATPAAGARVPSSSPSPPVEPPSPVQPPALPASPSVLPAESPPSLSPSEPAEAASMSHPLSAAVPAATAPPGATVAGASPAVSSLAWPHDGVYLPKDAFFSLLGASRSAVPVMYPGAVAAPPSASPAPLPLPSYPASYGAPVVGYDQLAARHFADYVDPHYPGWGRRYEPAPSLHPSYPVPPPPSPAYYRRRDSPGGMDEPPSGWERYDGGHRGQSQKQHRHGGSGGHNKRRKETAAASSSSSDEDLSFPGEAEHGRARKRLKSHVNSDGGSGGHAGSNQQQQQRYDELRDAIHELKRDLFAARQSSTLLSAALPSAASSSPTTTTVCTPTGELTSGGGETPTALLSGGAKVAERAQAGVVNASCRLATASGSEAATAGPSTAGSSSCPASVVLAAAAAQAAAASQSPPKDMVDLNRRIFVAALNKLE
Kind of experiment: Concentration required for inhibition of human cytomegalo virus (HCMV) protease activity. The arrangement: species or system Human herpesvirus 5 strain AD169.
As for `C[C@@H]1C(=O)N(C(=O)C2[C@@H](C)[C@H]2C)[C@H]2CCN(C(=O)OCc3ccccc3)C12` (some centres undefined), the IC50 (commonly the concentration that gives 50% inhibition) came to 72 µM.
In turn, `C[C@@H]1C(=O)N(C(=O)C2[C@@H](C)[C@@H]2C)[C@H]2CCN(C(=O)OCc3ccccc3)C12` (some centres undefined) had a 50% inhibitory concentration (IC50) above 100 µM.
Compound `C[C@@H]1C(=O)N(C(=O)C2Cc3ccccc32)[C@H]2CCN(C(=O)OCc3ccccc3)C12` (some centres undefined) had an IC50 of 11.5 µM.
Same read-out and setting: for `CC1CC1C(=O)N1C(=O)[C@@H](C)C2[C@@H]1CCN2C(=O)OCc1ccccc1` (some centres undefined) the value was 10 µM; for `CC(=O)N1C(=O)[C@@H](C)[C@@H]2[C@@H]1CCN2C(=O)[C@@H]1CCCN1C(=O)c1ccccc1`, 50 µM.
`C[C@@H]1C(=O)N(C(=O)C2CC2)[C@H]2CCN(C(=O)[C@@H]3CCCN3S(=O)(=O)Cc3cccc(N(C)C)c3)[C@H]12` returned a concentration for half-maximal inhibition (IC50) of 2.2 µM.
For the compound `CC(=O)N1C(=O)[C@@H](C)C2[C@@H]1CCN2CC(=O)Cc1ccccc1` (some centres undefined), inhibition was half-maximal at 79 µM (IC50).
Compound `C[C@H]1C(=O)N(C(=O)C2CC2)[C@@H]2CCN(C(=O)CN(C)S(=O)(=O)c3cccc4c(N(C)C)cccc34)[C@H]21` yielded a half-maximal inhibitory concentration (IC50) above 100 µM.
For the compound `C[C@@H]1C(=O)N(C(=O)C2CC2)[C@H]2CCN(C(=O)[C@@H]3CCCN3S(=O)(=O)c3cccc(C(=O)N(C)C)c3)[C@H]12`, the half-maximal inhibitory concentration (IC50) amounted to 1.4 µM. This lies in the single-digit micromolar range.
On the same count and under the same terms, for `C[C@@H]1C(=O)N(CC(O)COc2ccccc2)[C@H]2CCN(C(=O)OCc3ccccc3)C12` (some centres undefined) the value was above 500 µM; for `CC(=O)N1C(=O)[C@H](C)[C@H]2[C@H]1CCN2C(=O)[C@@H]1CCCN1S(=O)(=O)c1ccc(C)cc1`, 159 µM.
`CC(=O)N1C(=O)[C@@H](C)[C@@H]2[C@@H]1CCN2C(=O)[C@@H]1CCCN1S(=O)(=O)c1cccc2c(N(C)C)cccc12` had an IC50 of 0.54 µM. Compared with the last compound, the IC50 is about 290-fold lower.
For `CC(C)Oc1cccc(S(=O)(=O)N2CCC[C@H]2C(=O)N2CC[C@H]3[C@H]2[C@H](C)C(=O)N3C(=O)C2CC2)c1`, the IC50 stood at 65 µM. Against the preceding compound, the IC50 is about 120-fold higher.
The compound `CC(NS(=O)(=O)c1cccc2c(N(C)C)cccc12)C(=O)N1CC[C@@H]2[C@@H]1[C@@H](C)C(=O)N2C(=O)C1CC1` (some centres undefined) yielded a half-maximal inhibitory concentration (IC50) of 7 µM.
As to `Cc1ccc(S(=O)(=O)N2CCCC2C(=O)N2CC[C@H]3C2[C@H](C)C(=O)N3C=O)cc1` (some centres undefined), the half-inhibitory concentration (IC50) was found to be 14 µM.
The compound `CC(=O)N1C(=O)[C@H](C)[C@H]2[C@H]1CCN2C(=O)[C@@H]1CCCN1S(=O)(=O)c1ccc([N+](=O)[O-])cc1` registered a half-maximal inhibitory concentration (IC50) of 11 µM.
Still for that read-out and setting: under `CC(=O)N1C(=O)[C@@H](C)C2[C@@H]1CCN2S(=O)(=O)CCc1ccccc1` (some centres undefined) stands 45 µM; under `C[C@@H]1C(=O)N(C(=O)C2CC2)[C@H]2CCN(C(=O)OCc3ccccc3)C12` (some centres undefined), 9 µM.
In turn, `COc1ccc(C(=O)N2C(=O)[C@@H](C)C3[C@@H]2CCN3C(=O)OCc2ccccc2)cc1` (some centres undefined) showed an IC50 above 500 µM.
On to `CC(=O)N1C(=O)[C@H](C)[C@H]2[C@H]1CCN2C(=O)[C@@H]1CCCN1C(=O)c1ccccc1`, for which the IC50 was above 500 µM.
In turn, `CC(=O)N1C(=O)[C@H](C)[C@H]2[C@H]1CCN2C(=O)[C@@H]1CCCN1S(=O)(=O)c1cccc2c(N(C)C)cccc12` returned an IC50 above 500 µM.
For `C[C@H]1C(=O)N(C(=O)C2CC2)[C@@H]2CCN(C(=O)C3CCCCN3S(=O)(=O)c3cccc4c(N(C)C)cccc34)[C@H]21` (some centres undefined), the IC50 came out at 13 µM.
Still for that read-out and setting: for `C[C@@H]1C(=O)N(C=O)[C@H]2CCN(C(=O)OCc3ccccc3)C12` (some centres undefined) the value was 398 µM.
The compound `CC(=O)N1C(=O)[C@@H](C)C2[C@@H]1CCN2C(=O)COc1ccccc1` (some centres undefined) displayed an IC50 of 63 µM.
Same read-out and setting: for `C[C@@H]1C(=O)N(C(=O)C2C(C)(C)C2(C)C)[C@H]2CCN(C(=O)OCc3ccccc3)C12` (some centres undefined) the value was above 500 µM.

The next experiment addresses Prothrombin (Homo sapiens, UniProt P00734). The experiment in a line: Concentration required for 50% thrombin inhibition.
As to `C[C@@H]1C(=O)N(C(=O)C2CC2)[C@H]2CCN(C(=O)[C@@H]3CCCN3S(=O)(=O)c3cccc4c(N(C)C)cccc34)[C@H]12`, the concentration for half-maximal inhibition (IC50) was above 200 µM.
In turn, `CC(=O)N1C(=O)[C@@H](C)[C@@H]2[C@@H]1CCN2C(=O)[C@@H]1CCCN1S(=O)(=O)c1cccc2c(N(C)C)cccc12` gave a concentration for half-maximal inhibition (IC50) above 200 µM.

The target of another experiment is Acetylcholinesterase (Homo sapiens, UniProt P22303). Kind of experiment: Concentration required for 50% Acetylcholinesterase inhibition.
Sequence of Acetylcholinesterase (P22303 whole entry): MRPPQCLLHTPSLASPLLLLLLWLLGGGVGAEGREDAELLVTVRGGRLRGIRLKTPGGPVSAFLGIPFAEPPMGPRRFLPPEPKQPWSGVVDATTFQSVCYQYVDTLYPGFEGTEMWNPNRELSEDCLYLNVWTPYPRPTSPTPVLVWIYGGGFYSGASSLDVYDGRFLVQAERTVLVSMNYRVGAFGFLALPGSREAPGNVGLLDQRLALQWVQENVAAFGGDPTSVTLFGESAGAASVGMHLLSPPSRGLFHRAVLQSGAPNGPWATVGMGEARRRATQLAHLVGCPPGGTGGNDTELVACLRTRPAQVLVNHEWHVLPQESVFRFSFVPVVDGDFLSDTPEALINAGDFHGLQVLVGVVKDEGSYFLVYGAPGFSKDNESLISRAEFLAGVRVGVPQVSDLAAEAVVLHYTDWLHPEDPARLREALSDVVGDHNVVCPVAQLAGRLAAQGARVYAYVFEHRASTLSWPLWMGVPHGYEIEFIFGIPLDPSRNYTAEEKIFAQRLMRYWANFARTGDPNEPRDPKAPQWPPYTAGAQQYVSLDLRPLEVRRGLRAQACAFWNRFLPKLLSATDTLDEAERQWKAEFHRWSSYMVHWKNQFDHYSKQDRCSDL
Compound `C[C@@H]1C(=O)N(C(=O)C2CC2)[C@H]2CCN(C(=O)[C@@H]3CCCN3S(=O)(=O)c3cccc4c(N(C)C)cccc34)[C@H]12` came in with a 50% inhibitory concentration (IC50) above 100 µM.
`CC(=O)N1C(=O)[C@@H](C)[C@@H]2[C@@H]1CCN2C(=O)[C@@H]1CCCN1S(=O)(=O)c1cccc2c(N(C)C)cccc12` yielded a half-inhibitory concentration (IC50) above 100 µM.

The next experiment deals with T1, Capsid scaffolding protein. The experiment in a line: Inhibition of Human cytomegalo virus(HCMV) protease activity measured by HPLC assay. The arrangement: species or system Human herpesvirus 5 strain AD169.
`CC(=O)N1C(=O)[C@@H](C)C2[C@@H]1CCN2C(=O)C(=O)c1cccn1C` (some centres undefined): the 50% inhibitory concentration (IC50) stood at 5 µM.
`CC(C)C(=O)N1C(=O)[C@@H](C)C2[C@@H]1CCN2C(=O)OCc1ccccc1` (some centres undefined) returned an IC50 of 126 µM. Compared with the last compound, the IC50 is about 25-fold higher.
On the same count and under the same terms, for `C[C@@H]1C(=O)N(C(=O)C(C)(C)C)[C@H]2CCN(C(=O)OCc3ccccc3)C12` (some centres undefined) the value was above 500 µM; for `CC(=O)OCC(=O)N1C(=O)C(C)C2C1CCN2C(=O)OCc1ccccc1` (centres undefined), 13 µM; for `CC(=O)OCC(=O)N1C(=O)[C@@H](C)C2[C@@H]1CCN2C(=O)OCc1ccccc1` (some centres undefined), 6 µM.
In the case of `CC(=O)N1C(=O)[C@@H](C)C2[C@@H]1CCN2C(=O)Cc1c(C)[nH]c2ccc(F)cc12` (some centres undefined), the IC50 was found to be 6 µM.
Same read-out and setting: under `C[C@@H]1C(=O)N(C(=O)C2CCC2)[C@H]2CCN(C(=O)OCc3ccccc3)C12` (some centres undefined) stands 32 µM.
On the same count and under the same terms, under `C[C@@H]1C(=O)N(C(=O)CCO)[C@H]2CCN(C(=O)OCc3ccccc3)C12` (some centres undefined) stands 133 µM.

Biological target in the next experiment: not listed separately
Kind of experiment: Concentration required for 50% elastase inhibition.
As to `C[C@@H]1C(=O)N(C(=O)C2CC2)[C@H]2CCN(C(=O)[C@@H]3CCCN3S(=O)(=O)c3cccc4c(N(C)C)cccc34)[C@H]12`, the half-inhibitory concentration (IC50) was above 10 µM.
The same measure, in the same setting: under `CC(=O)N1C(=O)[C@@H](C)[C@@H]2[C@@H]1CCN2C(=O)[C@@H]1CCCN1S(=O)(=O)c1cccc2c(N(C)C)cccc12` stands above 10 µM.

The values are drawn from ChEMBL document CHEMBL1135388, “Design and synthesis of pyrrolidine-5,5-trans-lactams (5-oxohexahydropyrrolo[3,2-b]pyrroles) as novel mechanism-based inhibitors of human cytomegalovirus protease. 2. Potency and chirality” (J Med Chem, 2002).
